Counter-ions that a name gives are not always drawn.
Target: T1, BEC 1 potassium channel (Homo sapiens, UniProt Q9ULD8)
T1 construct: expressed in transfected cells
T1 sequence (Q9ULD8 1-1083): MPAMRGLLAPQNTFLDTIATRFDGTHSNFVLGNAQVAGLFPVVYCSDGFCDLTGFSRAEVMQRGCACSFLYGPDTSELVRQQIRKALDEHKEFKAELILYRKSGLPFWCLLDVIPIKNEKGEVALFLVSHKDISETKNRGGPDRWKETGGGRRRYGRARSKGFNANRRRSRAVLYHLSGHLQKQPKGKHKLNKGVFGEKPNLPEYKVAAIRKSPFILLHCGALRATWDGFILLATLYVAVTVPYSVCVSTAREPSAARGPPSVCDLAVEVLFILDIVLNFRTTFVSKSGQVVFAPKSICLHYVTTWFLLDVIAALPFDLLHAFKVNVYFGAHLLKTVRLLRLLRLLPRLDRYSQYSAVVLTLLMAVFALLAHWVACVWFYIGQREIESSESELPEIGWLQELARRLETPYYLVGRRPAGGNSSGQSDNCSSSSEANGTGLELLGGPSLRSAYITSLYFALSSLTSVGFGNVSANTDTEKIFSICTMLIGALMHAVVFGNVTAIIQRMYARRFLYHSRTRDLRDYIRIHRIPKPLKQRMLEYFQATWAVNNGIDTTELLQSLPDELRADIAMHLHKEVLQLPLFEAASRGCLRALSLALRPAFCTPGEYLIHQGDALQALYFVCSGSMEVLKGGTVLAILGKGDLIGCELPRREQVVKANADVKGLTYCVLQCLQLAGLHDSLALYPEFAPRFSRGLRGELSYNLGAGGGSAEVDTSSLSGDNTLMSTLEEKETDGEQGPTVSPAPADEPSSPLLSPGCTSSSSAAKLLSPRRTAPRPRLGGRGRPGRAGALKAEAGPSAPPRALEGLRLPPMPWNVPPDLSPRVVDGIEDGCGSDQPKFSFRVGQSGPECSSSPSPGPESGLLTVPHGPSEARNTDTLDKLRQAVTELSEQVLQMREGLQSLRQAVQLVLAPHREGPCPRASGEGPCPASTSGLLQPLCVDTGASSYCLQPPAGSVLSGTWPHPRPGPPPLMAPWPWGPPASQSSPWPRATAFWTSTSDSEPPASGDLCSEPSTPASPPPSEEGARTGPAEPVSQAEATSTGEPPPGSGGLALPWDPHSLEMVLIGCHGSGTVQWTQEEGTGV
Experiment: BEC 1 inhibitory activity using released amount of 86Rb ions from BEC 1-expressing cells
Type: cell-based
Details: 86Rb ion release, BEC 1-stably expressing CHO (dhfr-deficient) cell, 100 mM KCl stimulation; read-out: BEC1 IC50
Protocol: In general, the potassium channel can pass Rb^+ ion similar to K^+ ion, so that the channel activity can be measured using release of a radioisotope ^86Rb^+ as a marker. By incubating cells expressing the novel potassium channel protein together with ^86RbCl (e.g., 18 hr, 37° C.), ^86Rb^+ can be incorporated into the cells. The cells are washed with a low K^+ concentration physiological saline (e.g., 4.5 mM K^+) and then suspended in the same solution. When a high K^+ concentration solution (e.g., 100 mM in final concentration) is added to the cell suspension, membrane potential of the cell is depolarized and the potassium channel therefore is activated. As a result, the intracellular ^86Rb^+ is released into the extracellular part, thus radioactivity of the extracellular solution can be used as a marker of the channel activity. It is possible to screen a compound and a peptide capable of modifying activity of the BEC 1 potassium channel protein, by comparing the radioactivity released into the extracellular part when the high K^+ concentration solution is added in the presence and absence of each drug to be tested.
Method for Measuring BEC 1 Inhibitory Activity of Compounds Using Released Amount of ^86Rb ions as the Index
The channel activity of BEC 1 was measured in accordance with the method described in WO 99/37677, using amount of a radioisotope ^86Rb ion released from a BEC 1-expressing cell as the index. That is, when an ^86Rb ion-incorporated BEC 1-expressing cell was stimulated with 100 mM KCl, the radioactivity released from the cell was used as the channel activity of BEC 1. The ^86Rb ions were incorporated into a BEC 1-stably expressing cell by culturing the cell (3 hours, 37° C.) in the presence of ^86RbCl (0.5 μCi/ml), and the un-incorporated ^86Rb ions were removed by washing three times with HEPES-buffered saline (pH 7.4, 2.5 mM KCl). The cells were incubated with HEPES-buffered saline containing a compound to be tested at room temperature for 15 minutes and then further incubated with 100 mM KCl-containing HEPES-buffered saline (pH 7.4) containing the compound to be tested at room temperature for 5 minutes. The extracellular medium was recovered, and then the remaining cells were lysed with 0.1 N NaOH and recovered.
The Cerenkov radioactivity of the extracellular medium and cell lysate was respectively measured, and their total was used as the total radioactivity. The released amount of ^86Rb ions was expressed by the percentage of extracellular medium radioactivity based on the total radioactivity. The value obtained in the presence of the compound was used as a test value, and the value obtained in the absence of the compound as a control value and the value obtained when not stimulated with 100 mM KCl as a blank value. Inhibitory action of each compound was expressed by % inhibition, namely (control value−test value)×100/(control value−blank value), or by an IC50 value calculated from the % inhibition. As the test results of typical compounds are shown in the following Tables 2 and 3, it was confirmed that said compounds have the BEC 1 potassium channel inhibitory action.
In this connection, as the BEC 1-expressing cell, a BEC 1-stably expressing cell prepared in accordance with the method described in WO 99/37677 using a dihydrofolate reductase (dhfr)-deficient strain of a Chinese hamster ovary cell was used.

| IC50 [nM] | Compound |
| --- | --- |
| 190 | OCCCCCNc1nc(Nc2ccccc2)nc(Nc2ccccc2)n1 [compound 22] |
| 290 | COCCNc1nc(Nc2ccccc2)nc(Nc2ccccc2)n1 [compound 17] |
| 390 | CCCCCNc1nc(Nc2ccccc2)nc(Nc2ccccc2)n1 [compound 14] |
| 220 | CC(C)Nc1nc(Nc2ccccc2)nc(Nc2ccc(F)cc2)n1.Cl [compound 45, N-(4-fluorophenyl)-N′-isopropyl-N″-phenyl-1,3,5-triazine-2,4,6-triamine hydrochloride] |

Tested on: not given
Experiment: not given
Details: not given

| Compound | melting point [°C] |
| --- | --- |
| OCCCCCNc1nc(Nc2ccccc2)nc(Nc2ccccc2)n1 [compound 22] | 118 to 119 |
| O=C1OCCC1CNc1nc(Nc2ccccc2)nc(Nc2ccccc2)n1 (stereo not shown) (as salt: HCl) (hydrate or solvate) [compound 24] | 138 to 140 |
| c1ccc(Nc2nc(NCC3CCOCC3)nc(Nc3ccccc3)n2)cc1 (as salt: salt) (hydrate or solvate) [Example 741] | 191 to 193 |
| Fc1ccc(Nc2nc(NCc3ccnc(F)c3)nc(Nc3ccccc3)n2)cc1 (as salt: HCl) [Example 744] | 175 to 177 |
| COCCNc1nc(Nc2ccccc2)nc(Nc2ccccc2)n1 [compound 17] | 128 to 129 |
| Nc1cccc(CNc2nc(Nc3ccccc3)nc(Nc3ccc(F)cc3)n2)n1 (hydrate or solvate) [Example 819] | 164 to 165 |
| CCCCCNc1nc(Nc2ccccc2)nc(Nc2ccccc2)n1 [compound 14] | 78 to 81 |
| C#CCNc1nc(Nc2ccccc2)nc(Nc2ccccc2)n1 (as salt: HCl) [compound 16] | 195 to 197 |
| Fc1ccc(Nc2nc(NCc3cccs3)nc(Nc3ccc(F)cc3)n2)cc1 (as salt: HCl) [compound 31] | 180 to 182 |
| Fc1ccc(Nc2nc(NCC3CCCO3)nc(Nc3ccc(F)cc3)n2)cc1 (stereo not shown) (as salt: HCl) (hydrate or solvate) [compound 36] | 171 to 174 |
| OCCCCCNc1nc(Nc2ccc(F)cc2)nc(Nc2ccc(F)cc2)n1 (as salt: HCl) [compound 37] | 162 to 163 |
| CSCCCNc1nc(Nc2ccccc2)nc(Nc2ccccc2)n1 (as salt: HCl) [compound 19] | 162 to 163 |
| OCCCCCNc1nc(Nc2ccccc2)nc(Nc2ccc(F)cc2)n1 (as salt: HCl) [Example 776] | 178 to 180 |
| OCCOCCNc1nc(Nc2ccccc2)nc(Nc2ccccc2)n1 (as salt: HCl) [compound 23] | 167 to 169 |
| OCCOCCNc1nc(Nc2ccc(F)cc2)nc(Nc2ccc(F)cc2)n1 (as salt: HCl) [compound 38] | 151 to 152 |
| Nc1cc(CNc2nc(Nc3ccccc3)nc(Nc3ccc(F)cc3)n2)ccn1 (as salt: salt) (hydrate or solvate) [Example 747] | 164 to 199 |
| Fc1ccc(Nc2nc(NCc3ccnc(F)c3)nc(Nc3ccc(F)cc3)n2)cc1 (as salt: HCl) [Example 743] | 191 to 192 |
| Fc1ccc(CNc2nc(Nc3ccc(F)cc3)nc(Nc3ccc(F)cc3)n2)cc1 (as salt: HCl) [compound 29] | 166 to 167 |
| CC(CCCC(C)(C)O)Nc1nc(Nc2ccccc2)nc(Nc2ccccc2)n1 (stereo not shown) (as salt: HCl) [Example 742] | 112 to 113 |
| OCCOCCNc1nc(Nc2ccccc2)nc(Nc2ccc(F)cc2)n1 (as salt: HCl) [Example 777] | 141 to 142 |
| Fc1ccc(Nc2nc(NCc3ccco3)nc(Nc3ccc(F)cc3)n2)cc1 (as salt: HCl) [compound 30] | 179 to 180 |

Second part, the compound after the results:

| melting point [°C] | Compound |
| --- | --- |
| 169 to 170 | COCCNc1nc(Nc2ccccc2)nc(Nc2ccc(OC)cc2)n1 (as salt: HCl) [Example 808] |
| 209 to 211 | OCCNc1nc(Nc2ccccc2)nc(Nc2ccc(F)cc2)n1 (as salt: HCl) [Example 773] |
| 188 to 189 | OCCCNc1nc(Nc2ccccc2)nc(Nc2ccc(F)cc2)n1 (hydrate or solvate) [Example 774] |
| 141 to 143 | CCONc1nc(Nc2ccccc2)nc(Nc2ccc(F)cc2)n1 (as salt: HCl) (hydrate or solvate) [Example 790] |
| 194 to 195 | Cc1ccc(Nc2nc(Nc3ccccc3)nc(NC(C)C)n2)cc1 (as salt: HCl) [Ex 47] |
| 174 to 177 | COc1ccc(Nc2nc(Nc3ccccc3)nc(NC(C)C)n2)cc1 (as salt: HCl) (hydrate or solvate) [Ex 48] |
| 201 to 203 | CC(C)Nc1nc(Nc2ccccc2)nc(Nc2ccc(Cl)cc2)n1 (as salt: HCl) [Ex 46] |
| 140 to 141 | CONc1nc(Nc2ccccc2)nc(Nc2ccc(F)cc2)n1 (as salt: HCl) (hydrate or solvate) [Example 789] |
| 179 to 181 | COCCNc1nc(Nc2ccccc2)nc(Nc2ccc(F)cc2)n1 (as salt: HCl) [Example 771] |
| 205 to 206 | CC(C)Nc1nc(Nc2ccccc2)nc(Nc2ccc(F)cc2)n1.Cl [compound 45, N-(4-fluorophenyl)-N′-isopropyl-N″-phenyl-1,3,5-triazine-2,4,6-triamine hydrochloride] |
| 180 to 182 | COc1cccc(Nc2nc(Nc3cccc(OC)c3)nc(NC(C)C)n2)c1 (as salt: HCl) [compound 40] |
| 184 to 187 | CCN(CC)CCCC(C)Nc1nc(Nc2ccccc2)nc(Nc2ccc(F)cc2)n1 (stereo not shown) (hydrate or solvate) [Example 794] |
| 193 to 195 | C[C@H](CO)Nc1nc(Nc2ccccc2)nc(Nc2ccc(F)cc2)n1 (as salt: HCl) [Example 779] |
| 185 to 186 | OCCCCNc1nc(Nc2ccccc2)nc(Nc2ccc(F)cc2)n1 (as salt: HCl) [Example 775] |
| 198 to 200 | CC(C)Nc1nc(Nc2ccccc2)nc(Nc2ccc(C(F)(F)F)cc2)n1 (as salt: HCl) [Ex 49] |

Reference: patent US7375222B2, “2,4,6-Triamino-1,3,5-triazine derivative” (Astellas Pharma Inc., priority 2002, dated 2008)
